Laboratory results taken from ChEMBL document CHEMBL1201862, “PubChem BioAssay data set” (2004).
Active and inactive are the calls of the source.

Columns and labels:
[1] = target: T1, Replicative DNA helicase DnaB (Mycobacterium tuberculosis, UniProt P9WMR3); experiment: DnaB intein splicing inhibitors, dose response, biochemical, cell-free fluorescence (AID 449749); assay type: functional
T1 sequence (P9WMR3 whole entry): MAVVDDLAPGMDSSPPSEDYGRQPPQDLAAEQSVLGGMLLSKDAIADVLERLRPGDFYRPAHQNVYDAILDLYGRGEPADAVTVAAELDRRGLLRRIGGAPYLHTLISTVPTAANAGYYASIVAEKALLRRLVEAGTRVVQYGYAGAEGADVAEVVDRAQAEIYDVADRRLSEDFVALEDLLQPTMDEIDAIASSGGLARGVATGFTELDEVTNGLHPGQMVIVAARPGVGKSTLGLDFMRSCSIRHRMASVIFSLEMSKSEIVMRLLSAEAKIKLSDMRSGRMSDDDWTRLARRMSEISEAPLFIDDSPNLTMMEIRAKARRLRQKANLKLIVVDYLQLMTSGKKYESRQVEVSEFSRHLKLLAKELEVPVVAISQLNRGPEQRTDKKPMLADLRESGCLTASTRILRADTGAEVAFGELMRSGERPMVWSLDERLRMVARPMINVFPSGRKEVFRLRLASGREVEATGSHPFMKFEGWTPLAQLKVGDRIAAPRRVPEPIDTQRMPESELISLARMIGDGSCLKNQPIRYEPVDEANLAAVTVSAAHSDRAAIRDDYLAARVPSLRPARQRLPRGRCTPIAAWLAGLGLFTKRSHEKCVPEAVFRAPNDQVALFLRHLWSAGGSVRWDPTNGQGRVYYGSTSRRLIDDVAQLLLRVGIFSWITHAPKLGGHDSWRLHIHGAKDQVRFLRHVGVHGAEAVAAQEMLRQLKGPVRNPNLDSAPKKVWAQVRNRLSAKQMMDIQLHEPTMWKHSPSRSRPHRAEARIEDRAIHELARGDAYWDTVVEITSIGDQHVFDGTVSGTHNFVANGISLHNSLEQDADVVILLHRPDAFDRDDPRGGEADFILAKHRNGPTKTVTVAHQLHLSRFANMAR

[2] = fluconazole-exposed Candida albicans growth modulators – fluorescence, retest, confirmation (AID 2467); assay type: functional, cell-based
Caspase-6 = Caspase-6 (Homo sapiens, UniProt P55212); experiment: inhibition of CASP6 peptide cleavage – biochemical, VEID-R110 fluorescence, cherry-pick, dose response (AID 720632)
[3] = NIH-3T3 fibroblast cytotoxicity, dose response, cytotoxicity control, cell-based, fluorescence, Alamar Blue, secondary assay (AID 2327); assay type: functional;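 further: NIH-3T3 mouse fibroblasts cultured with fluconazole at 8 µg/mL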
Protein RecA = target: T2, Protein RecA (Mycobacterium tuberculosis, UniProt P9WHJ3); experiment: Fluorescence Cell-Free Homogeneous Dose Retest to Identify Inhibitors of RecA-Intein Splicing Activity. [Related pubchem assays (depositor defined):AID2097, AID2223, AID489010, AID492950]; assay type: functional
T2 sequence (P9WHJ3 whole entry): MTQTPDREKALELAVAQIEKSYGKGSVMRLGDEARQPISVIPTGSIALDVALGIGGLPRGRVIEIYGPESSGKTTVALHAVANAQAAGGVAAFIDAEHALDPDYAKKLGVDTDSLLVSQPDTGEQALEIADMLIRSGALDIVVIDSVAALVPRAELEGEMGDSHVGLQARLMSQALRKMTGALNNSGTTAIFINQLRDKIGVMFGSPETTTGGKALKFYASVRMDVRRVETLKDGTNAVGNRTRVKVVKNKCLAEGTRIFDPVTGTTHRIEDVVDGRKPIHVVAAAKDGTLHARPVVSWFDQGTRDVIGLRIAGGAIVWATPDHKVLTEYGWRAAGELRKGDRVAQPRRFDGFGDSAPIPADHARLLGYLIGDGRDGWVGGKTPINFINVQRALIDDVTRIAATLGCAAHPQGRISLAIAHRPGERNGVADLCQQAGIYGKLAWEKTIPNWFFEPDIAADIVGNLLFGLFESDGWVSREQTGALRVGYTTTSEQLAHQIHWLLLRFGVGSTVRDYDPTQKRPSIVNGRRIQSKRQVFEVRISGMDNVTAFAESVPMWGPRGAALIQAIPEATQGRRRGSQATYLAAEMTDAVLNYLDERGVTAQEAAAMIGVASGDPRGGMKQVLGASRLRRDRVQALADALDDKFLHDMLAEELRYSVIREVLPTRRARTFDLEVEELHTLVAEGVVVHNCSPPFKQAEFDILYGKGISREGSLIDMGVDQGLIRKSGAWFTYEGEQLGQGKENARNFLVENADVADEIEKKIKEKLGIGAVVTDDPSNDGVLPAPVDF

[4] = target: Serine/threonine-protein phosphatase (Candida dubliniensis (strain CD36 / CBS 7987 / NCPF 3949 / NRRLY-17841) (Yeast), UniProt B9W6M3); experiment: blockers of CaCl2-induced CDRE-lacZ signaling – S. cerevisiae, luminescence, secondary, dose response (AID 2388); assay type: functional, cell-based;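 further: yeast reporter cells carrying a calcineurin-responsive lacZ construct stimulated with calcium chloride; luminescent beta-galactosidase reporter signal in whole cells rather than isolated phosphatase activity; potency for inhibition where a drop in reporter signal means calcineurin blockade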
Exodeoxyribonuclease V = Exodeoxyribonuclease V (Escherichia coli (strain K12), UniProt P04993+P07648+P08394); experiment: RecBCD inhibition via phage-restricted bacterial growth – absorbance, V66 E. coli, mutant T4 phage, counter-screen for AddAB inhibitor project, dose response (AID 492957); assay type: functional, cell-based, Escherichia coli str. K-12 substr. MG1655
[5] = Counterscreen for AddAB inhibitors: absorbance-based bacterial cell-based high throughput dose response assay for inhibitors of bacterial viability. [Related pubchem assays (depositor defined):AID435030, AID449728, AID449731, AID488942, AID488955, AID488956]; assay type: functional
[6] = target: T3, C-C chemokine receptor type 6 (Homo sapiens, UniProt P51684); experiment: antagonism of CCR6 beta-arrestin recruitment – cell-based, luminescent beta-arrestin readout, dose response (AID 504728); assay type: functional
T3 sequence (P51684 whole entry): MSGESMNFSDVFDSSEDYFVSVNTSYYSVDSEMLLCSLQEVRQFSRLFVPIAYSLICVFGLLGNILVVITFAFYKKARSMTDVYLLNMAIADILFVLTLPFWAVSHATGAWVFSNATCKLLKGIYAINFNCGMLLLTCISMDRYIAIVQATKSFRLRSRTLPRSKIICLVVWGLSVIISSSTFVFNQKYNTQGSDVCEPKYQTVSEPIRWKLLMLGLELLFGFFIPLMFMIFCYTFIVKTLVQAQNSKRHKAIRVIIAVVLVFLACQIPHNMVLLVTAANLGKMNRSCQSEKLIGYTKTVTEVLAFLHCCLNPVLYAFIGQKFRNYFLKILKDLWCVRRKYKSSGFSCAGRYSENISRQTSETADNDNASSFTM

Beta-galactosidase = Beta-galactosidase (Escherichia coli, UniProt Q8VNN2); experiment: detection-enzyme interference by beta-gal modulators – biochemical, E. coli enzyme, set 3, artefact control for CCR6 antagonist project, dose response (AID 504712); assay type: functional
[7] = target: ATP-dependent molecular chaperone HSP82 (Candida albicans (strain WO-1) (Yeast), UniProt C4YTQ8); experiment: steroid-induced GRE reporter decrease in yeast – S. cerevisiae, luminescence, Hsp90 inhibitor project, dose response (AID 2400); assay type: functional, cell-based;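 further: beta-galactosidase luminescence from glucocorticoid response element reporter as proxy for Hsp90 function; inhibitor potency where signal loss means Hsp90 inhibition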
[8] = target: Voltage-gated inwardly rectifying potassium channel KCNH2 (Homo sapiens, UniProt Q12809); details: Potency;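 further: confirmatory quantitative high-throughput screen measuring inhibition of hERG channel activity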
[9] = target: T4, Sentrin-specific protease 8 (Homo sapiens, UniProt Q96LD8); experiment: inhibition of human SENP8 cleavage activity – biochemical, luminescence, SAR follow-up (AID 504501); assay type: functional
T4 sequence (Q96LD8 whole entry): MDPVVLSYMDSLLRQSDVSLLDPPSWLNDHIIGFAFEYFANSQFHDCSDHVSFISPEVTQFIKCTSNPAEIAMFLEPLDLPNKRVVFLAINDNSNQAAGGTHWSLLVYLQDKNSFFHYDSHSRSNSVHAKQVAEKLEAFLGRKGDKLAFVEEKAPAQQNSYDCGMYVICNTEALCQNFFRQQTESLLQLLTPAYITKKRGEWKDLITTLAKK

Caspase-3 = target: T5, Caspase-3 (Homo sapiens, UniProt P42574); experiment: SAR Analysis of small molecule inhibitors of Sentrin-specific proteases (SENPs) using a Caspase-3 Selectivity assay. [Related pubchem assays (depositor defined):AID2540, AID2599, AID434973, AID489001]; assay type: functional
T5 sequence (P42574 whole entry): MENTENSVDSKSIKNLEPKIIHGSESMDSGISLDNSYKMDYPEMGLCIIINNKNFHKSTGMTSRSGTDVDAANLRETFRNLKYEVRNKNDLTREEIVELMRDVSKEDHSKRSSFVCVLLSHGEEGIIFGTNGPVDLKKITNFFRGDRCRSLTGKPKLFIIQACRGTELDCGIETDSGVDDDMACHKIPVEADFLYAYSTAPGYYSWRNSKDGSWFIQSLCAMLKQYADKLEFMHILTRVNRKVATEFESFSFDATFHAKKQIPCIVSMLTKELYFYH

[10] = target: T6, Sentrin-specific protease 6 (Homo sapiens, UniProt Q9GZR1); experiment: SAR Analysis of small molecule inhibitors of Sentrin-specific protease 6 (SENP6) using a Luminescent assay. [Related pubchem assays (depositor defined):AID2582, AID2599]; assay type: functional
T6 sequence (Q9GZR1 whole entry): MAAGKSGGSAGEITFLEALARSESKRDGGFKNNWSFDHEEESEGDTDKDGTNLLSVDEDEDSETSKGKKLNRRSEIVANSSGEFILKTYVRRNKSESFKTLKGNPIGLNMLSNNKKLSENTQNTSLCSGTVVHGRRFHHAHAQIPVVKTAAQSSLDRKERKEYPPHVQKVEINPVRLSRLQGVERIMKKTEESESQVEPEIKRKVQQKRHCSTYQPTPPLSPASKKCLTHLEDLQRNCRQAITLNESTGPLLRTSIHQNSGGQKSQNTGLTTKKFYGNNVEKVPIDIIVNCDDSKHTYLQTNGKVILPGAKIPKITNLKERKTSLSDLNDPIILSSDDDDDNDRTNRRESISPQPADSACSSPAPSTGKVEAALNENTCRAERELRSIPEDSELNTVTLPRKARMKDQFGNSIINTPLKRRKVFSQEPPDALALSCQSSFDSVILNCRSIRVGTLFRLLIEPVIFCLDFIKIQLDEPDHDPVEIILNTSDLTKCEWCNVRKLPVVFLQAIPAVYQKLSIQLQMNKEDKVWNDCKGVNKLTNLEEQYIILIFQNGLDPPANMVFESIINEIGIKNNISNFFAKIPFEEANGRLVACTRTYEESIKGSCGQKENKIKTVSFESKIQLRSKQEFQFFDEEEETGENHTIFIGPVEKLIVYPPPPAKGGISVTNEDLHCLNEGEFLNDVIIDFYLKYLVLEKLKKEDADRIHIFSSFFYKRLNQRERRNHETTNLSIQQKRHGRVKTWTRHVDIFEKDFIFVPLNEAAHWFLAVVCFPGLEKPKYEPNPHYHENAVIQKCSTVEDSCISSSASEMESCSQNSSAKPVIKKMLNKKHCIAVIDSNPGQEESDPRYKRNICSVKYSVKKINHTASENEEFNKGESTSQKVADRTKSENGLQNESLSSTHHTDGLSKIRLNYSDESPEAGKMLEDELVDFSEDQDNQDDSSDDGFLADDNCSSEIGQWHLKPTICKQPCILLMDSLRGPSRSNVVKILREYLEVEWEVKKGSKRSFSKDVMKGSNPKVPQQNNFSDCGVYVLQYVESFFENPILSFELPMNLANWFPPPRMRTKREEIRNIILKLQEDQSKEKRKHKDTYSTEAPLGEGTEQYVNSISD

[11] = target: T7, Sentrin-specific protease 7 (Homo sapiens, UniProt Q9BQF6); experiment: inhibition of human SENP7 cleavage activity – biochemical, luminescence, SAR follow-up (AID 504497); assay type: functional
T7 sequence (Q9BQF6 whole entry): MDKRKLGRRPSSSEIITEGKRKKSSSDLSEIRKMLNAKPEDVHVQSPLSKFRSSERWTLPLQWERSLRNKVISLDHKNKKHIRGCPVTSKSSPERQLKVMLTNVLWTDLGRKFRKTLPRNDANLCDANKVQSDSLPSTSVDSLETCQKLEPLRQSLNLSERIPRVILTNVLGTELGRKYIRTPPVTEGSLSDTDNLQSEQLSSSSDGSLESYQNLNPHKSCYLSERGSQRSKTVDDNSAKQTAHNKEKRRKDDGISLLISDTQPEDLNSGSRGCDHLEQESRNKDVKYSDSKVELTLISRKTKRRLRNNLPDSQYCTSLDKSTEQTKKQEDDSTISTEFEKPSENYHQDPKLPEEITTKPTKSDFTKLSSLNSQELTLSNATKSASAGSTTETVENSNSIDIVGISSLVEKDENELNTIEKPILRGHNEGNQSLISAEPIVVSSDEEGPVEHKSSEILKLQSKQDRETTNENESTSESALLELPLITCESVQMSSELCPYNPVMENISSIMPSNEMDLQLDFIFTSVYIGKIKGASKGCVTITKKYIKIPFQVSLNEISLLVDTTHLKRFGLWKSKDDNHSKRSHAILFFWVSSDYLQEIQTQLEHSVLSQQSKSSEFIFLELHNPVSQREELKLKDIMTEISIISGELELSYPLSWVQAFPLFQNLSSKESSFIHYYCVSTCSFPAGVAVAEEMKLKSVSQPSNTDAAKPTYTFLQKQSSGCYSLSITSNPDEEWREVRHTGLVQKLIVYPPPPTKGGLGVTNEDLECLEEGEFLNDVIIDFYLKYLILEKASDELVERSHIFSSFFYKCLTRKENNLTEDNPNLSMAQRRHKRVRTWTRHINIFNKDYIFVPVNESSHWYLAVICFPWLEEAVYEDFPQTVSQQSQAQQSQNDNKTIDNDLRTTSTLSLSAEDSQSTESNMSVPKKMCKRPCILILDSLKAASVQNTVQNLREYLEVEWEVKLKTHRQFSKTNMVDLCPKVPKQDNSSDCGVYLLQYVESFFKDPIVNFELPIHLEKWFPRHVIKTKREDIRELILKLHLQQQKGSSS

Serine/threonine-protein phosphatase, sequence (B9W6M3 whole entry): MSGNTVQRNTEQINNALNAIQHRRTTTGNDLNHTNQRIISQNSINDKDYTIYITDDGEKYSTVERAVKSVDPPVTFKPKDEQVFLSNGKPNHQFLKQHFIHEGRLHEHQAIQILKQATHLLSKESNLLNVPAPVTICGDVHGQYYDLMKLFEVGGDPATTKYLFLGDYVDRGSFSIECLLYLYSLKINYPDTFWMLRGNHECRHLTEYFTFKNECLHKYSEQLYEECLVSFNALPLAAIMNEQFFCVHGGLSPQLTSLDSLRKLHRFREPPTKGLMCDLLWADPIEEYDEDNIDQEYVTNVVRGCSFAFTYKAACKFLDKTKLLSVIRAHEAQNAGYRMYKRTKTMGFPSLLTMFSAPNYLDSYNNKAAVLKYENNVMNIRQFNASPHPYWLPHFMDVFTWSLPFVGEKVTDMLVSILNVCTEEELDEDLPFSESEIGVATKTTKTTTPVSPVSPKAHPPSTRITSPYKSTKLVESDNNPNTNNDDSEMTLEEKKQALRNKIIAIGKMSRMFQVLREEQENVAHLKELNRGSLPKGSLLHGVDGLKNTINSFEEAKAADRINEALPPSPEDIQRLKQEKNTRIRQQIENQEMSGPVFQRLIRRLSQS
ATP-dependent molecular chaperone HSP82, sequence (C4YTQ8 whole entry): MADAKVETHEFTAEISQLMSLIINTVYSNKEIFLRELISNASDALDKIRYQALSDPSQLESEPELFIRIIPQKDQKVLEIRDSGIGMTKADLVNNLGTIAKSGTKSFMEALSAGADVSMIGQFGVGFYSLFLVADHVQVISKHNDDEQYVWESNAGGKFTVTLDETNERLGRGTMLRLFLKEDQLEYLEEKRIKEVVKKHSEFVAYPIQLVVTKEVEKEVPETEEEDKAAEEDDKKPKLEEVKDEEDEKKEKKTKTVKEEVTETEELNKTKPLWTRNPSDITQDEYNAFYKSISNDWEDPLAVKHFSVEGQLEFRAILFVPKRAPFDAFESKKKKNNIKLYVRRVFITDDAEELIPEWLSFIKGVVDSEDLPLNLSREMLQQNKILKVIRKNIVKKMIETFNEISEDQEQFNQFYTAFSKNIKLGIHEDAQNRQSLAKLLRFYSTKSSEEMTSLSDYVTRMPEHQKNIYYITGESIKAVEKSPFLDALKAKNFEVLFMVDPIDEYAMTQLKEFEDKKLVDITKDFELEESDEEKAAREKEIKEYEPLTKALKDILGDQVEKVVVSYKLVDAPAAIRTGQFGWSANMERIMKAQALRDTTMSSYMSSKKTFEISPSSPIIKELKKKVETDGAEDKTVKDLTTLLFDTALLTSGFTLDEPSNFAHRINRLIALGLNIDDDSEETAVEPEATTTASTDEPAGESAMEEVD
Voltage-gated inwardly rectifying potassium channel KCNH2, sequence (Q12809 whole entry): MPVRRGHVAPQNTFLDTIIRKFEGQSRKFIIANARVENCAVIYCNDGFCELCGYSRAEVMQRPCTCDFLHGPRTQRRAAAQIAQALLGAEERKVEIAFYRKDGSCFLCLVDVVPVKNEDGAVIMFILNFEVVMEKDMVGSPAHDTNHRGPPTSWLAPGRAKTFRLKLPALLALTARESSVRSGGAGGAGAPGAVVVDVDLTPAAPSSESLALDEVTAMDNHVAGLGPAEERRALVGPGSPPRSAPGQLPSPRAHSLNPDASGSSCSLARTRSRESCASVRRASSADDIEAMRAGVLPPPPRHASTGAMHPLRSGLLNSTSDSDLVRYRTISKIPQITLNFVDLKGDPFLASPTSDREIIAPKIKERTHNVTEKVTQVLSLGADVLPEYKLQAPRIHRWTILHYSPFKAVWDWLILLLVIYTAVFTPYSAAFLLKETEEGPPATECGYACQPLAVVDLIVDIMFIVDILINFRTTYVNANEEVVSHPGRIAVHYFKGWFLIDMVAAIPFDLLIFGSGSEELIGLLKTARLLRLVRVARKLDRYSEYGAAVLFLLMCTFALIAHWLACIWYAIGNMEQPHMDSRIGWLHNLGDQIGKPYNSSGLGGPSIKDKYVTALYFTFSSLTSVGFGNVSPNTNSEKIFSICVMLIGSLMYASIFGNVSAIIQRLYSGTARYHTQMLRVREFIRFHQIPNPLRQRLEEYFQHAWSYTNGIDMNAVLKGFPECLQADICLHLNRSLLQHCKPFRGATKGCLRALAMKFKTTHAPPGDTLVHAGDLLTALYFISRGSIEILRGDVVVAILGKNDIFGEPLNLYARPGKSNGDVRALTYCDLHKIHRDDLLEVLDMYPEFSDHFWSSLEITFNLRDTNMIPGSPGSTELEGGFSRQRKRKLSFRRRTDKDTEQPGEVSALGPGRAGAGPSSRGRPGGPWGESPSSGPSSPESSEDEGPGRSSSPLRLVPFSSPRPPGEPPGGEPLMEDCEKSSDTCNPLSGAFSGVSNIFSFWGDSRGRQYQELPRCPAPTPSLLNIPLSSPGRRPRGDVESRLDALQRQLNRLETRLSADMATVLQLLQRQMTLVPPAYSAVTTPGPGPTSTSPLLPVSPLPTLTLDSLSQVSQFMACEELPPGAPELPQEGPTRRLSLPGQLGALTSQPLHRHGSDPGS
Beta-galactosidase, sequence (Q8VNN2 whole entry): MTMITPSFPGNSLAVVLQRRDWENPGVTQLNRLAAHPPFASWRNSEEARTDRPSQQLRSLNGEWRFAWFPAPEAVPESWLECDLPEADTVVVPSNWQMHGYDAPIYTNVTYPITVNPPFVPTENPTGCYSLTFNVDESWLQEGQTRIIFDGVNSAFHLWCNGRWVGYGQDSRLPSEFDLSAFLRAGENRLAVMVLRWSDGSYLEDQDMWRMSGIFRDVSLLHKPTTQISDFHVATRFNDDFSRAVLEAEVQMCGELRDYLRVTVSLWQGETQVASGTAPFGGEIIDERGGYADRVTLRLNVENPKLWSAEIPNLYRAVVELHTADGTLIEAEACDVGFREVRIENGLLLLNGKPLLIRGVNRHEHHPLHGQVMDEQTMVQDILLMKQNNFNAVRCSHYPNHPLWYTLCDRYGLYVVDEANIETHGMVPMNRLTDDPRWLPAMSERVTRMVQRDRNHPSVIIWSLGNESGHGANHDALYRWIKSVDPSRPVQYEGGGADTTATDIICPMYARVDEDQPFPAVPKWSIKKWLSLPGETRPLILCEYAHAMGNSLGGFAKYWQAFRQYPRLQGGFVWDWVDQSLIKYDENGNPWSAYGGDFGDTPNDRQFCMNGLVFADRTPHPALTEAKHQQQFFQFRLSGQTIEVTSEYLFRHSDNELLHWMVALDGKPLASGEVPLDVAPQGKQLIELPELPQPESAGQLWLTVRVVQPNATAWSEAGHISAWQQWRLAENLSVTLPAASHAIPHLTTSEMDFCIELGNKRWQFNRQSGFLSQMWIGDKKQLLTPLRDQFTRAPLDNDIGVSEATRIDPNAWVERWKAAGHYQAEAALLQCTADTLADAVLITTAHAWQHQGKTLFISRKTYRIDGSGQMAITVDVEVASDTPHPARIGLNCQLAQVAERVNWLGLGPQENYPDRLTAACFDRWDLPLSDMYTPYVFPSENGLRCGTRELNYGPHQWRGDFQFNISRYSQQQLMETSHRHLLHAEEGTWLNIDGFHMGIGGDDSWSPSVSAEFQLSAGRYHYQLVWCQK
Caspase-6, sequence (P55212 24-179 limits assumed): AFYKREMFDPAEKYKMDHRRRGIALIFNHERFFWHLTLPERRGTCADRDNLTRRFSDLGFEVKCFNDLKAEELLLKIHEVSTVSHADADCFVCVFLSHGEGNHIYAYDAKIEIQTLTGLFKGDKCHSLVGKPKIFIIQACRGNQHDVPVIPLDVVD
Caspase-6, sequence (P55212 194-293 limits assumed): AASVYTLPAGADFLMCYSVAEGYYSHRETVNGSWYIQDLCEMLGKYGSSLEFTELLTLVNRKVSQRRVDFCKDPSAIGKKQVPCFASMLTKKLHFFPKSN

O=[N+]([O-])c1cc(O)c2ncccc2c1
AC50 [1]: 6.95 µM (active) | EC50 [2]: 0.706 µM (active) | AC50 (Caspase-6): 17.3 µM (active) | EC50 [3]: 42.1 µM (active) | EC50 (Protein RecA): 4.6 µM (active) | EC50 [4]: > 180 µM (inactive) | IC50 (Exodeoxyribonuclease V): 62.3 µM (inactive) | IC50 [5]: 41.5 µM (inactive) | IC50 [6]: > 66.6 µM (inactive) | IC50 (Beta-galactosidase): > 66.6 µM (inactive) | EC50 [7]: 18.5 µM (active)

CCN=C(S)NNC(=O)c1cc(-c2cc(C)ccc2C)nc2ccccc12
EC50 [2]: 0.296 µM (active) | EC50 [3]: 129 µM (active) | EC50 [4]: > 180 µM (inactive) | EC50 [7]: > 150 µM (inactive)

CCCCNCC
AC50 [8]: 31.6 µM (inconclusive)

O=C(Nc1nc2ccc(Cl)cc2s1)C1CCCCC1
IC50 [9]: > 99 µM (inactive) | IC50 (Caspase-3): > 99 µM (inactive) | IC50 [10]: > 99 µM (inactive) | IC50 [11]: > 99 µM (inactive)
